ChEMBL document CHEMBL1133221 (2000)
Activity calls are given as the source filed them. The rule behind the calls is not given here.

Assays:
[1] = Inhibitory activity against chitin synthase from Saccharomyces cerevisiae at a concentration up to 500 uM; No inhibition
[2] = target: Chitin synthase 1 (Candida albicans) (UniProt P23316); test: Inhibitory activity against chitin synthase from Candida albicans at 128 ug/mL; No inhibition
[3] = system: trychophyton mentagrophytes; test: Inhibitory activity against chitin synthase from Trichophyton mentagrophytes at 128 ug/mL; No inhibition
Microsporum canis = test: Inhibitory activity against chitin synthase from Microsporum canis at 128 ug/mL; No inhibition
Aspergillus fumigatus = test: Inhibitory activity against chitin synthase from Aspergillus fumigatus at 128 ug/mL; No inhibition
Cryptococcus neoformans = test: Inhibitory activity against chitin synthase from Cryptococcus neoformans at 128 ug/mL; No inhibition
[4] = Inhibitory activity against chitin synthase from Saccharomyces cerevisiae

Sequence of Chitin synthase 1 (Candida albicans) (P23316 whole entry, looked up): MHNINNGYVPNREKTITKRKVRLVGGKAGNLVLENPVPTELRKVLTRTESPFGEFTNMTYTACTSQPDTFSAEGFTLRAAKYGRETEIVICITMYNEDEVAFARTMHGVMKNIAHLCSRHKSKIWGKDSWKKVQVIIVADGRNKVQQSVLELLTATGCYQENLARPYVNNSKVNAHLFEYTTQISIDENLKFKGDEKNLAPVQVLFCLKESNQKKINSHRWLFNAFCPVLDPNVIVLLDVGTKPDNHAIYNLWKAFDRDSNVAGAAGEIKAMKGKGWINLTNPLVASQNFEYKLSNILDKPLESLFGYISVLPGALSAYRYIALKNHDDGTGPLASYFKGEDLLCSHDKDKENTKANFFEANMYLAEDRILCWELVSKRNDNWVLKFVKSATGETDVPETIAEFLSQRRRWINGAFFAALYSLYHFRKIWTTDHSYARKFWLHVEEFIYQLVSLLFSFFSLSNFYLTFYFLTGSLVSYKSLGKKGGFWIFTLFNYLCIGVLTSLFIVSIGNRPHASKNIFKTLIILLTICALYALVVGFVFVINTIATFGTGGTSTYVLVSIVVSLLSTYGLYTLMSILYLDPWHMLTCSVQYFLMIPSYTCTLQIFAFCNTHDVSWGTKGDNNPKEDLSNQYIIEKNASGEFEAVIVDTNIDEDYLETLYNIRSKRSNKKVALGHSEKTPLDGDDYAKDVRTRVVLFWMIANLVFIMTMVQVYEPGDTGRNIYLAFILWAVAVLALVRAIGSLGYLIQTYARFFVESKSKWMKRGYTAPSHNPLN

Ki [1]	Activity [2]	Activity [3]	Activity (Microsporum canis)	Activity (Aspergillus fumigatus)	Activity (Cryptococcus neoformans)	Ki [4] [nM]	SMILES
Not Active	inactive	inactive	inactive	inactive	inactive		CCOP(=O)(OCC)C(F)(F)C1C(O)C(O)C(CO)N1CCNC1C(CO)OC(OC)C(NC(C)=O)C1O (configuration not stated)
						600	C[C@@H]([C@H](N)C(=O)N[C@H](C(=O)O)[C@H]1O[C@@H](n2ccc(=O)[nH]c2=O)[C@H](O)[C@@H]1O)[C@H](O)c1ccc(O)cn1 [NIKKOMYCIN]
